Experimental data as given in patent publication US12285408B2, “Methods and compositions for the treatment of snake bite” (priority 2021, dated 2025).

What was measured:
Echis ocellatus venom [1] = test: Murine 'challenge then treat' model of envenoming, intraperitoneal; assay type: in vivo, CD-1 mice
Protocol: FIG. 18. […] Kaplan-Meier survival graphs for experimental animals (n=5) that received E. ocellatus venom (intraperitoneal administration of 90 μg; 5×iv. LD50), followed by delayed drug treatment intraperitoneally 15 mins later. […] For the DMPS and antivenom (D+AV) group, experimental animals received 120 μg of DMPS 15 mins after venom, and intravenous antivenom (168 μl of the E. ocellatus monospecific antivenom EchiTAbG, MicroPharm Ltd, UK) 1 hr after venom delivery. All DMPS data presented is taken from Albulescu et al. “Preclinical validation of a repurposed metal chelator as an early-intervention therapeutic for hemotoxic snakebite. Sci. Trans. Med. 12, eaay8314 (2020)”).
To better mimic a snakebite scenario, mice were initially challenged with venom, followed by the delayed administration of a single drug or a combination of drugs, as previously described. The venom challenge dose was increased to ensure complete lethality in the venom-only control group occurred within 4-5 hours. Groups of five male 18-22 g CD-1 mice (Charles River, UK) were injected with venom (100 μl final volume), followed by a drug dose that was scaled up accordingly after 15 min. […] Experimental animals were monitored for 24 h, with humane end points for euthanasia, and data recording, performed as described above. […]

[2] = Tolerability of oral DMPS; assay type: in vivo
Echis ocellatus venom [3] = settings: previous work, same preclinical model; cited from earlier work
[4] = test system: Echis ocellatus venom metalloproteinase activity; test: In vitro snake venom metalloproteinase assay (quenched fluorogenic substrate), drug screen; assay type: biochemical; settings: 10 μM drug, control drug
Protocol: FIG. 1. Inhibition of Echis ocellatus venom metalloproteinase activity by known matrix metalloproteinase inhibitors (MMPi) and rationally selected drugs based on their target site interactions. One microgram of whole venom per reaction was incubated with 10 μM of drug (dissolved in DMSO). Predicted metalloproteinase inhibitors were based on descriptors from a MedChemExpress commercial library and the literature. […] The percentage metalloproteinase activity was calculated from an endpoint read taken 45 minutes after substrate addition. The phospholipase inhibitor varespladib was included as a non-metalloproteinase inhibiting drug control.
The snake venom metalloproteinase activity in the presence of inhibitors or vehicle control (DMSO), was measured using a quenched fluorogenic substrate (ES010, R&D Biosystems). […] The substrate was suspended in reaction buffer (150 mM NaCl, 50 mM Tris-HCl pH 7.5). Reactions consisted of 1 μg/reaction of venom (1 μg in 15 μl PBS) co-incubated with 0.91 μl of 1 mM of inhibitor, both added using the VIAFLO 384 (Integra). […] Strong hits were determined as those with less than 20% metalloproteinase activity of the venom and mediocre hits between 20 and 50%. […]

[5] = Water solubility when preparing stocks; assay type: physicochemical

Row | SMILES | survival (Echis ocellatus venom [1]; 90 μg venom i.p. (5×i.v. LD50), 120 μg of each drug i.p. 15 min later, 24 h monitoring, n=5) | adverse effects in drug-only controls (Echis ocellatus venom [1]; drug only, i.p., 24 hour monitoring) | oral dose that is well tolerated and safe [2] | time for which lethality was prevented (Echis ocellatus venom [3]) [h] | inhibitory effect against venom metalloproteinase activity [4] | water solubility [5]
1 | O=S(=O)(O)CC(S)CS (stereo not drawn) [DMPS, 2,3-dimercapto-1-propanesulfonic acid] | only two of the five experimental animals survived | None of the animals receiving DMPS alone displayed any adverse effects | up to 1,500 mg | ~8 |  | 
2 | CCc1c(C(=O)C(N)=O)c2c(OCC(=O)O)cccc2n1Cc1ccccc1 [varespladib] |  |  |  |  | no inhibitory effect | water insolubility
